Reference: patent publication US20140187556A1, “ANTI-AMYLOID COMPOUNDS AND METHODS” (Treventis Corporation, priority 2011, published 2014)
Where two headings read alike, the source gives them in different places.

Experiments:
[1] = molecular target: alpha-synuclein (Homo sapiens, UniProt P37840); experiment: alpha-synuclein aggregation assay (ThT, analogous to Example 1); format: biochemical; details: 10 μM compound
Procedure: Analogous to the method of Example 1, the ability of compounds to inhibit the aggregation of alpha-synuclein was performed by substituting Aβ with alpha-synuclein.

[2] = In vivo blood and brain exposure and brain/plasma ratio in ICR mice; details: male ICR mice
Procedure: TRV 1140 was formulated in 3% N-methyl-2-pyrrolidone, 0.5% Cremaphor, 50% olive oil in water. The compound was formulated at a concentration of 2 mg/mL and dosed in a volume of 10 mL/kg to produce a dose of 20 mg/kg. The formulation was an emulsion. Compound was formulated fresh daily. Mice were dosed once daily for three days. Male ICR mice (S.A. Ace Animals; Boyertown, Pa.) were used for this experiment. Animals were group housed and kept on a standard 12 hr light cycle. Food and water were available ad libitum. On the third day mice were dosed with compound. At the designated time after 20 mg/kg dosing (30 min, 2 hrs, 4 hrs), whole blood was collected via the retro-orbital sinus in heparanized tubes and mixed with deionized water at a 1:1 ratio for hemolyzation. Hemolyzed blood was analyzed for levels of test agent. Blood samples were extracted by a standard protocol known in the art. At designated time points, mice were sacrificed. Brains were removed, weighed, and processed. Brains were homogenized and test agent extracted with an acetonitrile homogenization method (1 mL acetonitrile: 1 g brain). Supernatant samples were stored at −80° C. for subsequent analysis of brain levels of test compound. Brain levels of test agent were analyzed by LC/MS/MS.

[3] = molecular target: Tau441 (Homo sapiens, UniProt P10636); experiment: Thioflavin S (ThS) tau aggregation assay; format: biochemical; details: 20 μM, FIG. 1
Procedure: Analogous to the method of Example 1, the ability of compounds to inhibit the aggregation of tau was performed by substituting […] with tau and Thioflavin T with Thioflavin S.

Sequence of Tau441 (P10636 1-441 isoform P10636-8): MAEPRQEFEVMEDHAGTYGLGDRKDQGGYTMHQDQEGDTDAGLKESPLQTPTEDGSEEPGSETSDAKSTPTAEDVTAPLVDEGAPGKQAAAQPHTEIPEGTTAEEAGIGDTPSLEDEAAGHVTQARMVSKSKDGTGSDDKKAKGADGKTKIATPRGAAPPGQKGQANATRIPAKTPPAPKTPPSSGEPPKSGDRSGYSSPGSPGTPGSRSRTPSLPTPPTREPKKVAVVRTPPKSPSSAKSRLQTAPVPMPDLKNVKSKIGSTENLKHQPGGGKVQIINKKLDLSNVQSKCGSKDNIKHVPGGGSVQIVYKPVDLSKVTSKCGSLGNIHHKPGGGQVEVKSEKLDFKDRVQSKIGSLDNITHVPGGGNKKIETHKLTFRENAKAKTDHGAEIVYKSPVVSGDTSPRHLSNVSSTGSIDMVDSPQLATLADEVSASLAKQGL

O=[N+]([O-])c1ccc(-c2cccc(C(O)C(F)(F)F)c2)cc1NCc1ccccc1 (stereo not drawn) [TRV 1140, 1-(3′-(benzylamino)-4′-nitro-[1,1′-biphenyl]-3-yl)-2,2,2-trifluoroethanol]
inhibition of alpha-synuclein aggregation [1]: inhibit alpha-synuclein aggregation at 10 μM
brain penetrance ([2]; 20 mg/kg): highly brain penetrable
time of maximum concentration (blood and brain) ([2]; 20 mg/kg once daily, third day): 4 h
total drug exposure in blood ([2]; 20 mg/kg once daily, third day, 0-4 hr): 450 ng·h/mL
total drug exposure in brain ([2]; 20 mg/kg once daily, third day, 0-4 hr, mean of two samples): 694 ng·h/mL
Kp ([2]; mouse, brain / plasma (method describes hemolyzed whole blood), 20 mg/kg once daily, third day): 1.54
Cmax ([2]; mouse, brain, 20 mg/kg once daily, third day, read-out: Maximum concentration (Cmax) in brain): 238 ng/mL
Cmax ([2]; mouse, whole blood, 20 mg/kg once daily, third day, read-out: Maximum concentration (Cmax) in blood): 87.5 ng/mL
relative potency in tau aggregation assay (lower fluorescence is better) [3]: Most potent
